# Test results published in patent US7189750B2, “Thiazole-based nitric oxide donors having at least two thiazole moieties and uses thereof” (priority 2004, dated 2007).
# Key:
# Type in all cases: cell-based
# [1] = tested on: isolated rat aorta; test: In vitro vasorelaxation of epinephrine-contracted rat aortic rings (CCRC); conditions: for vasorelaxation effect as compared with glyceryltrinitrate: isolated rat aorta, 1 μM epinephrine
# Text: Male Sprague Dawley rats were anaesthetized using intraperitoneal injection of ketamine and xylazine (50 and 10 milligram per kilogram, respectively) and the thoracic aorta, the large upper portion of the descending aorta, starting at the caudal border of the chest bone, was removed thereafter, while carefully removing the paraadventetial tissue surrounding the vessel. Aortae were cut into rings of 4–5 millimeters and mounted onto the tissue path. The path buffer (Krebs-bicrbonate) was constantly gassed with carbogen and maintained at 37° C. The rings were preloaded under 2 g tension and equilibrated for 90 minutes, while refreshing the buffer every 15 minutes. After stabilization, the rings were contracted with epinephrine (1 μM). Cumulative Concentration-Response Curves (CCRC) were measured for the vasorelaxing effect induced by adding various concentrations, ranging from 10^−10 M to 10^−5 M of Pet-2, Pet-3, Pet-7, Pet-8, Pet-12, Pet-24, Pet-43, Pet-59, Pet-147, Pet-152 and Pet-154, and glyceryltrinitrate (GTN), according to the procedure described in Feelich et al., Molecular Pharmacology, 56:243–253 (1999). The vehicle, which was used for this experiment was water:ethanol:propyleneglycol at proportional ratio of 1:1:1.
# The vasorelaxing effect of the thiazole-derived NO-donors according to the present invention was measured on slices of thoracic aorta of rats contracted with epinephrine, as described hereinabove.
# [2] = tested on: c-GMP in slices of thoracic aorta of rats; test: Cyclic-GMP measurement in aortic rat tissue (radioimmunoassay); conditions: for levels of cGMP as compared with GTN: isolated rat aorta; for cGMP Post-infusion / cGMP Pre-infusion: rat aorta; for cGMP Post-infusion: post-infusion (repeated treatment)
# Experimental: GTN (10^−6 M) was added to the chamber and, 1 minute after exposure to the drug, rings (usually 3–5) were taken, wrapped with aluminum foil and immediately frozen in liquid nitrogen for storage. Control sample group was treated with the vehicle solution only. At the time of analysis, rings were thawed, blotted over a dry gauzed and weighted. A known weight of tissue was homogenized in 2 ml ice-cold modified Hank's balanced salt solution containing (in gram/liter) NaCl 8; KCl 0.4; glucose 1; KH2PO4 0.06; Na2HPO4 0.047; Phenol red 0.017 and further containing 25 mM EDTA (disodium salt). The homogenate was centrifuged at 4000 g (force units) for 10 minutes at 2–4° C. and the supernatant was thereafter transferred into fresh pre-cooled test tube containing 1 ml of acetonitrile. The tubes were vortex mixed for a few seconds and subsequently centrifuged at 4000 g for 5 minutes at 2–4° C., to remove the precipitated protein. Each supernatant was transferred into a clean test tube and evaporated to dryness under a stream of nitrogen at 55° C. The dry residue was reconstituted with 10 volumes of Tris-EDTA buffer pH 7.5 (0.05 M Tris containing 4 mM EDTA). Aliquots of 100 μl of the reconstituted solution in duplicate were used for c-GMP measurements using Amersham RIA kit, as is described in Haj-Yehia & Benet [Pharmacology, 1995, 273, 1, pp. 94–100]. Standard curves were plotted with six concentrations (0, 0.5, 1, 2, 4 and 8 pmoles of c-GMP per tube).
# The NO-tolerance effect of GTN and NO-donor compounds according to the present invention was measured by following the production of c-GMP in slices of thoracic aorta of rats. Thus, the production of c-GMP was measured as described in the methods section above for the reference NO-donor compound GTN, and for the NO-donors of the present invention Pet-2, Pet-3, Pet-7, Pet-8, Pet-10, Pet-12, Pet-24, Pet-59, Pet-147, Pet-149, Pet-152, Pet-154 and Pet-155.
# [3] = tested on: isolated rat aorta; test: In vitro induction of tolerance and cross-tolerance: vasorelaxation of pre-exposed rat aortic rings; conditions: for EC50: Rattus norvegicus; for tolerance induction in vitro: rings pre-treated with epinephrine and then with the same compound (0.44 mM)
# Experimental: Aortic rings were prepared as described hereinabove, and were exposed to 0.44 mM GTN (vehicle was water:ethanol:propyleneglycol at proportional ratio of 1:1:1) for 1 hour before CCRC construction, to thereby induce tolerance to nitroglycerine. At the end of the tolerance induction period, rings were thrice washed with the path buffer (Krebs-bicrbonate) every 15 minutes for the following hour and then CCRC for vasorelaxation on GTN-induced tolerance rings were constructed for GTN (pretreated versus untreated rings, FIG. 15), in order to verify the ability to induce and measure GTN tolerance induction in vitro
# Attempted induction of tolerance to the NO-donating compounds of the present invention was performed under the same conditions as for GTN. Thus, in an exemplary experiment, rings were exposed to 0.44 mM solution of Pet-3 in the attempt to induce tolerance for Pet-3. CCRC were then measured for the vasorelaxing effect of Pet-3 on a group of rings which were pre-exposed to Pet-3 as to induce tolerance to Pet-3, and for an untreated control group. The above protocol was repeated with Pet-2, Pet-7, Pet-8, Pet-12, Pet-24, Pet-43, Pet-149 and Pet-152.
# Cross-tolerance studies were conducted using the same technique described above for measuring vasorelaxation of aortic rings from rats. Two groups of aortic rings samples were pre-treated with GTN, then one group was measured for vasorelaxation by GTN and the second group for vasorelaxation by Pet-12, an exemplary NO-donor according to the present invention. For the opposite cross-tolerance studies, two groups of aortic rings samples were pre-treated with Pet-12, then one group was measured for vasorelaxation by GTN and the second group for vasorelaxation by Pet-12.
# [4] = vasorelaxation, rat aortic rings contracted with 1 μM epinephrine, 10^−10 M to 10^−5 M, read-out: Concentration
# [5] = vasorelaxation, rat aortic rings contracted with 1 μM epinephrine, given as negative log value, read-out: EC50 (converted)
# [6] = vasorelaxation of rings pre-exposed to 0.44 mM of the same compound for 1 hour, given as negative log value, read-out: EC50 (converted)
# [7] = vasorelaxation of rings pre-exposed to 0.44 mM of the same compound for 1 hour, read-out: Concentration
# [8] = Rattus norvegicus, read-out: Concentration
SMILES,vasorelaxation effect as compared with glyceryltrinitrate [1],"EC50 [1, 4] [µM]","EC50 [1, 5] [µM]",levels of cGMP as compared with GTN [2],"EC50 [3, 6] [µM]","EC50 [3, 7] [µM]",tolerance induction in vitro [3],cGMP Post-infusion [2] [pmol/g tissue],cGMP Pre-infusion [2] [pmol/g tissue],EC50 ([1]; Rattus norvegicus) [µM],"EC50 [1, 8] [µM]",EC50 ([3]; 1 h) [µM],"EC50 ([3]; 1 h, read-out: Concentration) [µM]"
"Cc1nc(-c2ccc(C(F)(F)F)cc2)sc1CCO[N+](=O)[O-] [Pet-59, 4-Methyl-5-(2-nitrooxy-ethyl)-2-(4-trifluoromethyl-phenyl)-thiazole]",superior,0.0794,0.0794,increased,,,,,,,,,
"Cc1nc(Nc2cccc3ccccc23)sc1CCO[N+](=O)[O-] [Pet-149, [4-Methyl-5-(2-nitrooxy-ethyl)-thiazol-2-yl]-naphthalen-1-yl-amine]",superior,,,increased,0.0398,0.0433,absence of tolerance induction,115 ± 14,112 ± 12,,,,
"Cc1nc(N)sc1CCO[N+](=O)[O-] [Pet-10, 4-methyl-5-(2-nitrooxy-ethyl)-thiazole-2-ylamine]",,,,increased,,,,,,,,,
"Cc1nc(C)c(CCO[N+](=O)[O-])s1 [Pet-3, 2,4-Dimethyl-5-(2-nitrooxy-ethyl)-thiazole]",superior,,,increased,,,absence of tolerance induction,118 ± 10,122 ± 14,0.0355,0.0355,0.0501,0.0501
"Cc1nc(-c2ccccc2)sc1CCO[N+](=O)[O-] [Pet-8, 4-Methyl-5-(2-nitrooxy-ethyl)-2-phenyl-thiazole]",superior,0.0282,0.02,increased,0.0251,0.0251,,136 ± 12,133 ± 10,,,,
"Cc1nc(NC(=O)[C@@H](C)c2ccc(CC(C)C)cc2)sc1CCO[N+](=O)[O-] (stereo in doubt) [Pet-152, 2-(4-Isobutyl-phenyl)-N-[4-methyl-5-(2-nitrooxy-ethyl)-thiazol-2-yl]-propionamide]",superior,0.0501,0.0501,increased,0.0501,0.0501,,,,,,,
"CNc1cncc(-c2nc(C)c(CCO[N+](=O)[O-])s2)n1 [Pet-24, Methyl-{6-[4-methyl-5-(2-nitrooxy-ethyl)-thiazol-2-yl]-pyrazin-2-yl}-amine]",,0.2,0.2,increased,0.251,0.251,absence of tolerance induction,112 ± 10,115 ± 14,,,,
"CCNc1nc(C)c(CCO[N+](=O)[O-])s1 [Pet-147, Ethyl-[4-methyl-5-(2-nitrooxy-ethyl)-thiazol-2-yl]-amine]",,0.0316,0.0316,increased,,,,,,,,,
"Cc1nc(N(C)C)sc1CCO[N+](=O)[O-] [Pet-7, Dimethyl-[4-methyl-5-(2-nitrooxy-ethyl)-thiazol-2-yl]-amine]",10 fold,0.0282,0.0282,increased,0.0355,0.0501,absence of tolerance induction,123 ± 12,120 ± 12,,,,
"Cc1nc(NC(=O)c2cccnc2)sc1CCO[N+](=O)[O-] [Pet-154, N-[4-methyl-5-(2-nitrooxy-ethyl)-thiazol-2-yl]-nicotinamide]",,0.0398,0.0398,increased,0.0398,0.0398,,,,,,,
"Cc1nc(Nc2nc(C)c(CCO[N+](=O)[O-])s2)sc1CCO[N+](=O)[O-] [Pet-43, Bis-[4-methyl-5-(2-nitrooxy-ethyl)-thiazol-2-yl]-amine]",superior,,,,,,absence of tolerance induction,,,0.158,0.159,0.251,0.251
"C=CCNc1nc(C)c(CCO[N+](=O)[O-])s1 [Pet-155, allyl-[4-methyl-5-(2-nitrooxy-ethyl)-thiazol-2-yl]-amine]",superior,,,increased,0.0501,0.0501,,,,,,,
